The test system of data set [1] is glioma. Conditions: STAT3 inhibitor and irradiation vs either treatment alone; glioma preclinical study; cited from earlier work.
The test system of data set [2] is pSTAT3 (Tyr705) and CD11b. In words: Immunohistochemistry of mouse tumors treated with Serpinb3a siRNA. It is filed as in vivo. The method, then: Pretreatment serum SCCA was evaluated by ARUP National Reference Laboratory (Salt Lake City, UT, USA) using ELISA, and tissue microarrays were generated from untreated human tumor specimens. TMA sections were sent to HistoWiz Inc for IHC staining for CD11b (1:100, Abcam ab224800) and IHC for pSTAT3 (1:200, Sigma SAB4300033) was performed by Washington University AMP Core Labs. Mouse tumor sections were stained with pSTAT3 (1:150, Invitrogen PA5-121259) and CD11b (1:500, Invitrogen PA5-79532), using a Pierce peroxidase IHC detection kit (Thermo Fisher). QuPath V0.3.2 software was used for automated analysis using surface and cytoplasmic staining to determine the percent cells positive for CD11b. The staining scores for pSTAT3 were evaluated by the pathologist and calculated by (% of positively stained tumor cells x staining intensity ranged from 0-3). Values from at least two cores from each sample were considered valid and an average score was taken.

Data set [3] relates to LL2/B3a tumors. Kind of data set: LL2/B3a tumors treated with Serpinb3a siRNA with or without 10 Gy RT. Format: in vivo, C57/BL6 mice. The method, then:
Single-cell suspensions were blocked with either Human TruStain FcX Solution (422301, Biolegend) or mouse TruStain FcX PLUS (anti-mouse CD16/32) Antibody (S17011E, Biolegend) to avoid nonspecific Fc receptor binding and stained with LIVE/DEADFixable Dead Cell Stain Kit (MACS) to exclude dead cells. For surface staining, cells were incubated with the appropriate antibodies for 30 min at 4° C. Intracellular cytokine and nuclear staining was performed after surface staining using Cyto-Fast Fix/Perm Buffer Set and True-Nuclear Transcription Factor Buffer Set, respectively (BioLegend). Data analysis including viSNE and FlowJo plugin FlowSOM were performed on FlowJo v.10 (TreeStar). A range of 20,000 to 60,000 live cells was acquired and individual flow cytometry data from each group were combined into a single data file for generating viSNE. Color-coded subpopulations were gated by pre-defined markers for each immune cell type and overlaid to the viSNE plots for total CD45+ cells from tumors. All flow cytometry gating plots, histograms, and statistics were generated on FlowJo.
For xenograft models, female athymic nude mice aged 6-7 weeks old (Charles River) were injected subcutaneously with 5×10^6 Caski/Ctrl or Caski/B3 cells suspended in serum-free IMDM and 50% Matrigel Basement Membrane Matrix (Corning) to a final volume of 100 μl on their flank. For immunocompetent models, female C57/BL6 mice aged 7-8 weeks (Charles River) were injected subcutaneously with 5×10^5 LL2/Ctrl or LL2/B3a cells suspended in 100 μl of PBS into the right flank. To deplete myeloid cells, mice were treated with anti-CD11b antibody (Ultra-LEAF purified anti-mouse CD11b, Biolegend) or isotype IgG2b as control (Ultra-LEAF purified rat IgG2b, Biolegend). Antibodies were administered through intraperitoneal injection at the initial dose of 300 μg in 150 μl PBS on day 10 post-tumor inoculation, and a subsequent dose of 150 μg in 100 μl PBS every three days. To knock down Serpinb3a, mice received either mSerpinb3a siRNA (5′-ACAUCGAAUUUAACUUCAUtt-3′; 5′-AUGAAGUUAAAUUCGAUGUtt-3′; ID:s73336, Thermo) or control siRNA (Ambion in vivo negative control #1 Thermo) complexed with Invivofectamine 3 (Thermo Fisher) as per manufacturer's protocol. Mice received three intratumoral injections of 10 μg siRNA on days 9, 11, and 13 post-tumor inoculation before radiation treatment performed on day 14. On days 16 and 19, mice received 20 μg siRNA via intraperitoneal injection. For radiation treatment, mice were randomized to receive sham or 10Gy RT using the Xstrahl Small Animal Radiation Research Platform (SARRP) 200 (Xstrahl Life Sciences). Tumor volume was measured twice weekly and calculated by (length×width2)/2. For tissue dissociation, tumors were manually dissected and digested with 1 mg/ml Collagenase, 0.5 mg/ml hyaluronidase, and 10 mg/mL DNase I type IV (Sigma), and transferred to a tissue disaggregator (Medicon, BectonDickinson) using a CTSV (Medimachine II, BectonDickinson) and tissue homogenates were filtered through a 100 μm strainer. Spleens were dissociated by being pressed through a 70 μm filter. Animal work was approved by the Washington University Institute Institutional Animal Care and Use Committee (Protocol #20-0470).
T cells isolated using MojoSort mouse CD3 T cell isolation kit (Biolegend) were labeled with CellTrace violet and activated with CD3/CD28 Dynabeads (Thermo Fisher) for 4 days to evaluate proliferation. To examine TNF and IFNr, T cells were stimulated with 500× Cell Activation Cocktail containing 40.5 μM phorbol-12-myristate 13-acetate (PMA) and 669.3 μM ionomycin (Biolegend) in the presence of 5 μg/mL BFA (Biolegend) for 5 h and stained with surface/intracellular markers for FACS analysis.
Cell culture supernatant was collected at 48 h after fresh media was added to the adherent cells in a monolayer. Cell lysates were prepared using NP-40 buffer (Alfa Aesar). […]

Data set [4] has as its system Serpinb3a. In words: Knockdown of Serpinb3a in tumors by qPCR. Conditions: siB3-treated LL2/B3a tumors; average. It is filed as in vivo, mouse. Here is the method: For xenograft models, female athymic nude mice aged 6-7 weeks old (Charles River) were injected subcutaneously with 5×10^6 Caski/Ctrl or Caski/B3 cells suspended in serum-free IMDM and 50% Matrigel Basement Membrane Matrix (Corning) to a final volume of 100 μl on their flank. For immunocompetent models, female C57/BL6 mice aged 7-8 weeks (Charles River) were injected subcutaneously with 5×10^5 LL2/Ctrl or LL2/B3a cells suspended in 100 μl of PBS into the right flank. To deplete myeloid cells, mice were treated with anti-CD11b antibody (Ultra-LEAF purified anti-mouse CD11b, Biolegend) or isotype IgG2b as control (Ultra-LEAF purified rat IgG2b, Biolegend). […] Tumor volume was measured twice weekly and calculated by (length×width2)/2. […]
Lipofectamine RNAiMAX (Thermo Fisher) was used for STAT1 siRNA (ID: SASI_Hs02_00343387, SASI_Hs01_00098937, Sigma), STAT3 siRNA (ID: SASI_Hs01_00121206, SASI_Hs01_00061860, Sigma), and negative control siRNA (SIC001, Sigma) transfection, according to the manufacturer's instructions. […] Quantitative polymerase chain reaction (qPCR) was performed using PowerUp SYBR green PCR Master Mix (Applied Biosystems) and the Applied Biosystems 7900 Fast real-time PCR system and software. Each sample was performed in triplicate, gene expression levels were normalized to GAPDH, and fold changes were calculated using the ΔΔCt method. […]
On the technique in general: Real-time PCR tracks product formation cycle by cycle.

Take `C[C@H](NC(=O)/C(C#N)=C/c1cccc(Br)n1)c1ccccc1` [WP1066]: the survival entry in data set [1] is given as “enhanced survival”.

For “siB3: mSerpinb3a siRNA 5′-ACAUCGAAUUUAACUUCAUtt-3′; 5′-AUGAAGUUAAAUUCGAUGUtt-3′; ID:s73336, Thermo, complexed with Invivofectamine 3 (sense ACAUCGAAUUUAACUUCAUTT; antisense AUGAAGUUAAAUUCGAUGUTT; Invivofectamine 3 complex, further chemistry not given here)”, the “pSTAT3 expression (immunostaining of pSTAT3(Tyr705))” value in data set [2] (LL2/B3a+siB3 tumors) is “significantly reduced”. Moreover, the “CD11b+ myeloid cell infiltration” value in data set [2] (Serpinb3a knockdown tumors) was “reduced”. In addition, the “PD-1 in CD8+ T cells” value in data set [3] (RT/siB3 vs RT/siNC) is listed as “lower”. Moreover, the tumor growth inhibition entry in data set [3] (combination of Serpinb3a knockdown with 10 Gy RT (RT/siB3)) is recorded as “more significant tumor growth inhibition”. Moreover, the tumor growth entry in data set [3] (sham siB3-treated vs sham siNC-treated tumors) was “Reduced tumor growth”. Besides, the “CTLA-4 in CD8+ T cells” value in data set [3] (sham/RT siB3 vs siNC tumors) was “lower”. The “ratio of CD8/Treg” value in data set [3] (sham/RT siB3 vs siNC tumors) is on record as “higher ratio”. In addition, the “CD8+ T cells in tumors” value in data set [3] (sham/siB3 tumors) was “increase”. In addition, the “M-MDSCs, PMN-MDSCs, and M2 macrophages in tumors” value in data set [3] (sham/siB3 vs sham/siNC tumors, flow cytometry) was “significant reduction”. The “expression of CXCL1, and S100A8/A9 in tumor homogenates” value in data set [3] (sham/siNC vs. sham/siB3, ELISA) is on record as “significant decrease”. Moreover, in data set [3] (siB3 tumor-derived vs siNC tumor-derived), the “proliferative capacity of CD8+ T cells upon anti-CD3/28 stimulation” value is reported as “markedly higher proliferative capacity”. The entries for the “expression of granzyme B and perforin in CD8+ T cells” value in data set [3] (siB3 tumors) and in data set [3] (siB3 tumors with radiation treatment) were “increased expression” and “further enhanced”, respectively. Besides, the “decrease of Serpinb3a RNA expression in tumors” value in data set [4] worked out at 65%.

The values are drawn from US20230321105A1, “CELL SIGNAL DETECTION AND MODULATION IN DISEASE” (Washington University, priority 2022, published 2023).
